From patent US20260078108A1, “SOLID FORMS OF A ROCK INHIBITOR” (REDX PHARMA PLC, priority 2022, published 2026)

How the values were obtained:
PKCd = PKCd (Homo sapiens, UniProt Q05655); assay: Kinase panel 33P-ATP filter assay, PKCd; type: biochemical; details: HCl salt tested; ATP Conc. 10 μM (Km); read-out: Compound IC50 (nM) PKCd
Experimental: (§1) The HCl salts of S enantiomer and the R enantiomer of compound A were tested against a panel of kinases.
(§2) Compounds were received as powder and resuspended to 10 mM DMSO stock. Compounds were tested in 10-dose IC50 mode with a 3-fold serial dilution starting at 10 μM. Control compound, staurosporine, was tested in 10-dose IC50 mode with 4-fold serial dilution starting at 20 μM.
(§3) Reaction Conditions: Buffer Conditions: 20 mM HEPES ((4-(2-hydroxyethyl)-1-piperazineethanesulfonic acid; pH 7.5), 10 mM MgCl2, 1 mM EGTA (Ethyleneglycol-bis(p-aminoethyl)-N,N,N′,N′-tetraacetic Acid), 0.01% Brij35, 0.02 mg/ml BSA (Bovine serum albumin), 0.1 mM Na3VO4, 2 mM DTT (Dithiothreitol), 1% DMSO. Reaction Procedure: 1. Prepare indicated substrate in freshly prepared reaction buffer. 2. Deliver required cofactors to the substrate solution above. 3. Deliver indicated kinase into the substrate solution and mix gently. 4. Deliver compounds in DMSO into the kinase reaction mixture utilizing acoustic technology (Echo550). 5. Deliver ^33P-ATP (specific activity 0.01 μCi/μl final) into the reaction mixture to initiate the reaction. 6. Incubate kinase reaction for 120 minutes at room temperature. 7. […] Data Analysis: Kinase activity data were expressed as the percent remaining kinase activity in test samples compared to vehicle (dimethyl sulfoxide) reactions. […]

PKCepsilon = biological target: T1, PKCepsilon (Homo sapiens, UniProt Q02156); assay: Kinase panel 33P-ATP filter assay, PKCepsilon; type: biochemical; details: HCl salt tested; ATP Conc. 10 μM (Km); read-out: Compound IC50 (nM) PKCepsilon
T1 sequence (Q02156 1-737): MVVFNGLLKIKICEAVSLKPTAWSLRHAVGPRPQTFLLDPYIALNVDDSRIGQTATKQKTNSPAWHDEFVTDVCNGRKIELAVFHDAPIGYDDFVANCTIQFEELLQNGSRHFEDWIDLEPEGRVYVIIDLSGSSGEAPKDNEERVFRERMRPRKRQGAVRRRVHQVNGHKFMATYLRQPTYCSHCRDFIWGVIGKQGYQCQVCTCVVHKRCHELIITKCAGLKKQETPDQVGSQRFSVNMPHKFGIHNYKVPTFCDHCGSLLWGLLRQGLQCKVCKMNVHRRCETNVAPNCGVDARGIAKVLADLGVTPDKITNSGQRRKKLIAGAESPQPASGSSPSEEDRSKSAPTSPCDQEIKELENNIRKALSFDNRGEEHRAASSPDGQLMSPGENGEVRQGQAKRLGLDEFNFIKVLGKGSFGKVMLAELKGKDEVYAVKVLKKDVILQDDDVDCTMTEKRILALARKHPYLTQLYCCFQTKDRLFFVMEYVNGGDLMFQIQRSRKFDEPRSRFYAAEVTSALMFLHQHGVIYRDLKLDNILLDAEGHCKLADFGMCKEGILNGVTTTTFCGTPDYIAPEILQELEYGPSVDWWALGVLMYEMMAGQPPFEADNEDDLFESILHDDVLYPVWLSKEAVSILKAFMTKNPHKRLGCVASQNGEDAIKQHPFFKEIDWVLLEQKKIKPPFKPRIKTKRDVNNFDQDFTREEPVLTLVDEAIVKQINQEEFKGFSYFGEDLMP
Experimental: as §1, §2, §3

LATS2 = biological target: T2, LATS2 (Homo sapiens, UniProt Q9NRM7); assay: Kinase panel 33P-ATP filter assay, LATS2; type: biochemical; details: HCl salt tested; ATP Conc. 30 μM (Km); read-out: Compound IC50 (nM) LATS2
T2 sequence (Q9NRM7 1-1088): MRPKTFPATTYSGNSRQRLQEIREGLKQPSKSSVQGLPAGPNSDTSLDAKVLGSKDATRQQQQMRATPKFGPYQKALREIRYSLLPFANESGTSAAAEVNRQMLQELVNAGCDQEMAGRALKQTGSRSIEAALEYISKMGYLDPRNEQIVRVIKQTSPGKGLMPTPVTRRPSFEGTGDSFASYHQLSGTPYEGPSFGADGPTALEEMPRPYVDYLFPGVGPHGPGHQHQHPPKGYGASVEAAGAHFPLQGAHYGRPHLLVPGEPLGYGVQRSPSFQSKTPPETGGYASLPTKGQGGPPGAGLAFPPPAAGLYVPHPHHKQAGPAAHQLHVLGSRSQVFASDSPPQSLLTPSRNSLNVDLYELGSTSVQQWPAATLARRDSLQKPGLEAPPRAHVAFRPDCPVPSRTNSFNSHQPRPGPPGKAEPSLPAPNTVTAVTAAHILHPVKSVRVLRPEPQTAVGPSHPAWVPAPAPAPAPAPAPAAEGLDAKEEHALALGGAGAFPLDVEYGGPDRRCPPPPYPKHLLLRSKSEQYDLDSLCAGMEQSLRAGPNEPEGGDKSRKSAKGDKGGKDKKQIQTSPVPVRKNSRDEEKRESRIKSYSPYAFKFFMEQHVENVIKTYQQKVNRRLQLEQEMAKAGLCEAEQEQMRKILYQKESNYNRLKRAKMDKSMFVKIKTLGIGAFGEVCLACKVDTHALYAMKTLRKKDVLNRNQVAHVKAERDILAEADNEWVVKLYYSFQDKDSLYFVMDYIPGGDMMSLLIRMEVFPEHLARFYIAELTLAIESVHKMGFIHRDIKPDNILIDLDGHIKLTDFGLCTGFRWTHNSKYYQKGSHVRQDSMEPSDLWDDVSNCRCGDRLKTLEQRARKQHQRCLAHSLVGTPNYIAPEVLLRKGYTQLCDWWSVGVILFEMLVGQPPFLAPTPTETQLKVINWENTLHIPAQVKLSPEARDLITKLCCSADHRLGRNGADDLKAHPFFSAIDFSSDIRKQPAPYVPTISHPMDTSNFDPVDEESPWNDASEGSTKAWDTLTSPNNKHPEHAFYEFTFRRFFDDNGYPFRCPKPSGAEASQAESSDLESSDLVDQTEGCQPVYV
Experimental: as §1, §2, §3

μ (MOP) (h) = biological target: T3, μ (MOP) (h) (Homo sapiens, UniProt P35372); assay: CEREP panel mu (MOP) (h) antagonist effect, cAMP HTRF; type: cell-based; details: HCl salt tested; CHO cells, DAMGO (10 nM)
T3 construct: expressed in transfected cells; host or cells: CHO cells
T3 sequence (P35372 whole entry): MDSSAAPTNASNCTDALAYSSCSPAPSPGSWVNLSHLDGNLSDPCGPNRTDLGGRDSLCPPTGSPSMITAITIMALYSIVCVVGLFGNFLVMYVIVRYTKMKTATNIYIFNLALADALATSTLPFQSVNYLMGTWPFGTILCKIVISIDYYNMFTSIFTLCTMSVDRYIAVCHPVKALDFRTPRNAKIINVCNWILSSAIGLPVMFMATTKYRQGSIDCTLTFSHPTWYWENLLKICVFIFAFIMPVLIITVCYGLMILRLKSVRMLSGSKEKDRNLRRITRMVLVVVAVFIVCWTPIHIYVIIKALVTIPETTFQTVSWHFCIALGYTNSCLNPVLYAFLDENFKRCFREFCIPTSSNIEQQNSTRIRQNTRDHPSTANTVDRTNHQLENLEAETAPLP
Text: The use of in vitro pharmacological screening against a diverse range of targets (receptors, ion channels, enzymes and transporters) is used to identify undesirable off-target activity that may cause adverse drug reactions in humans. Screening panels (e.g. SafetyScreen44™ Panel, Eurofins) comprise a selection of off-targets linked with known issues in humans that could hinder or halt the development of drug candidates or market withdrawal if discovered after a drug is approved. The HCl salts of the S enantiomer and the R enantiomer of compound A were tested against a panel of such targets.
The tests were carried out according to the methods described in the following tables and indicated literature references.

PKCd, sequence (Q05655 whole entry, species assumed): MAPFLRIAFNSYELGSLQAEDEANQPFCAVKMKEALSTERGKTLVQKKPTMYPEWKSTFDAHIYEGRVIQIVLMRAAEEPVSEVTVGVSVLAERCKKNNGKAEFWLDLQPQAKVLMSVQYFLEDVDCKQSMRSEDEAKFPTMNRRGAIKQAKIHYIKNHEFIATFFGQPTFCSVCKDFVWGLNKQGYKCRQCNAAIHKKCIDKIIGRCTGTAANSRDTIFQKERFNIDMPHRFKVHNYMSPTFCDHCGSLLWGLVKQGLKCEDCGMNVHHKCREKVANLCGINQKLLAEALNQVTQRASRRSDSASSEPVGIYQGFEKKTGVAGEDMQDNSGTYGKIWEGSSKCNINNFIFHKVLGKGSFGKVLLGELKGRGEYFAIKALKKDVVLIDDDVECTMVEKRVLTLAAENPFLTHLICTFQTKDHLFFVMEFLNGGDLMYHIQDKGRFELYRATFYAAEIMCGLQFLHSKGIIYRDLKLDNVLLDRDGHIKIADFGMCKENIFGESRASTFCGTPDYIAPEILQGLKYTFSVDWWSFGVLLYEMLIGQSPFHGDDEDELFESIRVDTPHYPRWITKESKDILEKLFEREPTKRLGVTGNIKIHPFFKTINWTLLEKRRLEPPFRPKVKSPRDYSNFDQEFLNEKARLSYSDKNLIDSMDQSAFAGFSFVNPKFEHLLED

| Structure (SMILES) | IC50 (PKCd) | IC50 (PKCepsilon) | IC50 (LATS2) | mu (MOP) (h) (antagonist effect) (IC50) (μ (MOP) (h)) |
| --- | --- | --- | --- | --- |
| NCc1ccc(C(=O)Nc2ccncc2F)cc1-c1cccc(C(=O)Nc2ccc(SC[C@@H]3CCOC3=O)cc2)c1 [R-enantiomer] | < 0.5 nM | 2.9 nM | 42.7 nM | Inactive |
| NCc1ccc(C(=O)Nc2ccncc2F)cc1-c1cccc(C(=O)Nc2ccc(SC[C@H]3CCOC3=O)cc2)c1 [S-enantiomer] | 0.9 nM | 6.7 nM | 33.3 nM | Inactive |
